Where “and” joins values, the source holds several entries; their conditions need not be identical. Equal entries are not always repeated.
Assays:
Type in all cases: cell-based
Settings in all cases: 72 hours under normoxia
EGLN3 = experiment: Expression of hypoxia-sensitive gene EGLN3 in primary human keratinocytes in culture (RT-qPCR)
Protocol: (§1) The following protocol was followed: the tests were performed on human keratinocytes in culture, seeded on Greiner brand 48-well plates, coated with bovine collagen I. The plates were prepared according to the following procedure: the solution of bovine collagen I at 0.1 mg/ml was prepared by dilution in phosphate-buffered saline (PBS) of the bovine collagen I solution sold by the company Life Technologies. Each well was immersed with 1 ml of this dilution, which was left at the bottom of the wells for 1 hour at 37° C. At the end of the incubation, the collagen solution was removed and the wells were rinsed twice with 1 ml of PBS. The plates were then stored at 4° C. until the time of use. […] Following this culturing and treatment, the cell lawns were washed with phosphate-buffered saline (or PBS) and then lysed using a lysis buffer proposed in the kit from the supplier Qiagen. The RNAs were then extracted using the RNeasy isolation kit and the Qiacube robotic workstation, both sold by the company Qiagen, according to the manufacturer's instructions. The quantity and quality of RNAs were controlled using the LabChip® GX bioanalyser from Perkin-Elmer before performing reverse transcription (RT) using the Qiagen kit and according to the supplier's recommendations (QuantiTect reverse transcription kit). The cDNA obtained following the RT was then amplified by real-time quantitative PCR using a specific kit sold under the commercial brand LightCycler® 480 SYBR Green Master Mix by the company Roche (Cat. No. 14123920) and an LC480 thermocycler (Roche). The PCRs were performed in triplicate (n=3). The information relating to the primers used is presented below. […] EGNL3/[…] Quantitect Assay Primer; RPL13A/QT00089915/Hs_RPL13A-1-SG Quantitect Assay Primer, and the fluorescent probe of brand name SYBR Green sold by the company specified previously. The PCR was performed in three phases: • denaturing phase for 10 minutes at 95° C., • amplification phase which consists of 45 cycles comprising: • a step of denaturing for 30 seconds at 95° C., • a step of hybridization for 30 seconds at 60° C., and • a step of elongation at 72° C. for 30 seconds, • melting phase for ensuring the quality of the hybridizations. The incorporation of SYBR Green into the amplified DNA was measured continuously during the amplification cycles. These measurements make it possible to obtain curves of fluorescence intensity as a function of the PCR cycles and thus to evaluate the relative expression of each marker from the cycle thresholds (Ct), corresponding to the number of cycles required to appropriately detect a fluorescence level. For each marker and for each condition, the relative expression (RE) value was normalized relative to the expression of the reference gene RPL13. The expression of each gene is normalized by that of the “stable referent gene” (or “housekeeping gene” RPL13A, ribosomal gene). The results (“fold change” (Fc)) are expressed relative to the control. The genes used are hypoxia-sensitive (HIF-1 alpha signalling pathway) and are collated in Table 1 below. Three hypoxia-sensitive genes (BNIP3, EGLN3 and CA9) were used in the following examples. Three tests were performed according to the protocol described above for each gene and for each compound or combination.

CA9 = experiment: Expression of hypoxia-sensitive gene CA9 in primary human keratinocytes in culture (RT-qPCR)
Protocol: as §1

BNIP3 = experiment: Expression of hypoxia-sensitive gene BNIP3 in primary human keratinocytes in culture (RT-qPCR)
Protocol: as §1

Row | Compound | EGLN3 expression, fold change relative to the control, mean ± standard deviation (EGLN3; compound 100 μM) | EGLN3 expression, fold change relative to the control, single tests (EGLN3; compound 100 μM) | EGLN3 expression, fold change relative to the control, mean ± standard deviation (EGLN3; compound 300 μM) | EGLN3 expression, fold change relative to the control, single tests (EGLN3; compound 300 μM) | CA9 expression, fold change relative to the control, mean ± standard deviation (CA9; compound 100 μM) | CA9 expression, fold change relative to the control, mean ± standard deviation (CA9; compound 300 μM) | CA9 expression, fold change relative to the control, single tests (CA9; compound 300 μM) | BNIP3 expression, fold change relative to the control, mean ± standard deviation (BNIP3; compound 100 μM) | BNIP3 expression, fold change relative to the control, single tests (BNIP3; compound 100 μM) | BNIP3 expression, fold change relative to the control, mean ± standard deviation (BNIP3; compound 300 μM) | BNIP3 expression, fold change relative to the control, single tests (BNIP3; compound 300 μM) | EGLN3 expression, fold change relative to the control, mean ± standard deviation (EGLN3; compound 30 μM) | CA9 expression, fold change relative to the control, mean ± standard deviation (CA9; compound 30 μM) | BNIP3 expression, fold change relative to the control, mean ± standard deviation (BNIP3; compound 30 μM) | BNIP3 expression, fold change relative to the control, single tests (BNIP3; compound 30 μM) | EGLN3 expression, fold change relative to the control, mean ± standard deviation (EGLN3; compound 10 μM) | CA9 expression, fold change relative to the control, mean ± standard deviation (CA9; compound 10 μM) | BNIP3 expression, fold change relative to the control, mean ± standard deviation (BNIP3; compound 10 μM) | BNIP3 expression, fold change relative to the control, single tests (BNIP3; compound 10 μM) | other results
1 | CC1=NCC[C@@H](C(=O)O)N1 [Ectoin, ectoin] | (2.90 ± 0.50) | 2.48 and 2.76 and 3.46 | (2.62 ± 0.48) | 2.07 and 2.82 and 2.97 | (3.01 ± 0.64) | (2.57 ± 0.35) | 2.23 and 2.54 and 2.93 | (1.62 ± 0.27) | 1.31 and 1.77 | (1.62 ± 0.2) | 1.40 and 1.79 and 1.66 | – | – | – | – | – | – | – | – | CA9 expression, fold change relative to the control, single tests (CA9; compound 100 μM): 2.73 and 2.55 and 3.74
2 | Oc1ccc(C=Cc2cc(O)cc(O)c2)cc1 [Resveratrol, resveratrol] | – | – | – | – | – | – | – | – | – | – | – | – | – | – | – | – | – | – | – | EGLN3 expression, fold change relative to the control, mean ± standard deviation (EGLN3; compound 0.3 μM): (1.92 ± 0.55); EGLN3 expression, fold change relative to the control, single tests (EGLN3; compound 0.3 μM): 1.31 and 2.36 and 2.10; EGLN3 expression, fold change relative to the control, mean ± standard deviation (EGLN3; compound 1 μM): (3.65 ± 1.76); CA9 expression, fold change relative to the control, mean ± standard deviation (CA9; compound 0.3 μM): (1.63 ± 0.28); CA9 expression, fold change relative to the control, single tests (CA9; compound 0.3 μM): 1.82 and 1.75 and 1.31; CA9 expression, fold change relative to the control, mean ± standard deviation (CA9; compound 1 μM): (2.02 ± 0.33); CA9 expression, fold change relative to the control, single tests (CA9; compound 1 μM): 2.34 and 1.97 and 1.75; BNIP3 expression, fold change relative to the control, mean ± standard deviation (BNIP3; compound 0.3 μM): (1.26 ± 0.24); BNIP3 expression, fold change relative to the control, single tests (BNIP3; compound 0.3 μM): 1.05 and 1.53 and 1.21; BNIP3 expression, fold change relative to the control, mean ± standard deviation (BNIP3; compound 1 μM): (2.01 ± 0.79)
3 | CCOC(=O)c1ccnc(C(=O)OCC)c1 [Stemoxydine, diethyl 2,4-pyridinedicarboxylate] | – | – | (2.60 ± 0.83) | 2.15 and 2.09 and 3.56 | – | (4.53 ± 1.15) | 3.87 and 3.86 and 5.86 | – | – | (1.76 ± 0.32) | 1.51 and 1.65 and 2.13 | – | – | – | – | – | – | – | – | –
4 | O=C(O)[C@H]1O[C@@H](Oc2cc3oc(-c4ccccc4)cc(=O)c3c(O)c2O)[C@H](O)[C@@H](O)[C@@H]1O [Baicalin, baicalin] | – | – | – | – | – | – | – | – | – | – | – | (2.07 ± 0.39) | (0.91 ± 0.27) | (1.23 ± 0.15) | 1.14 and 1.41 and 1.15 | – | – | – | – | EGLN3 expression, fold change relative to the control, mean ± standard deviation (EGLN3; compound 3 μM): (1.19 ± 0.17); EGLN3 expression, fold change relative to the control, single tests (EGLN3; compound 3 μM): 1.00 and 1.33 and 1.25; EGLN3 expression, fold change relative to the control, single tests (EGLN3; compound 30 μM): 1.70 and 2.47 and 2.03; CA9 expression, fold change relative to the control, mean ± standard deviation (CA9; compound 3 μM): (1.06 ± 0.28); CA9 expression, fold change relative to the control, single tests (CA9; compound 3 μM): 1.27 and 1.18 and 0.74; CA9 expression, fold change relative to the control, single tests (CA9; compound 30 μM): 1.06 and 1.07 and 0.6; BNIP3 expression, fold change relative to the control, mean ± standard deviation (BNIP3; compound 3 μM): (1.11 ± 0.15); BNIP3 expression, fold change relative to the control, single tests (BNIP3; compound 3 μM): 0.99 and 1.27 and 1.06
5 | O=C1O[C@H]([C@@H](O)CO)C(O)=C1O [Vitamin C, reference compound] | (1.24 ± 0.24) | 1.05 and 1.51 and 1.16 | – | – | (1.22 ± 0.42) | – | – | (1.12 ± 0.18) | 0.98 and 1.32 and 1.07 | – | – | – | – | – | – | (1.07 ± 0.29) | (1.02 ± 0.52) | (1.01 ± 0.12) | 1.02 and 1.13 and 0.89 | EGLN3 expression, fold change relative to the control, single tests (EGLN3; compound 10 μM): 0.92 and 1.41 and 0.89
6 | CCCCCCCCCCCCCCCC(=O)OC[C@H](O)[C@H]1OC(=O)C(O)=C1O [Ascorbyl palmitate, ascorbyl palmitate] | – | – | – | – | – | – | – | – | – | – | – | (1.16 ± 0.81) | (0.99 ± 0.80) | (1.15 ± 0.41) | 1.04 and 1.6 and 0.81 | (1.35 ± 0.46) | (1.63 ± 0.38) | (1.10 ± 0.22) | 1.01 and 1.35 and 0.95 | CA9 expression, fold change relative to the control, single tests (CA9; compound 10 μM): 1.65 and 2.00 and 1.25
